Test system: diet induced obese mice (C57BL6)
Assay: Diet induced obese mice, 10 days oral 30 mg/kg: body weight and serum cholesterol
Format: in vivo, mouse
Conditions: DIO C57BL6 mice, 30 mg/kg oral gavage; for Cholesterol Change: serum
Experimental: Compounds were tested in diet induced obese mice (C57BL6) that were on a 65% high fat diet for 8-10 weeks. Mice were dosed for 10 days by oral gavage with 30 mg/kg of the compounds listed. Their body weights were recorded along with serum chemistries including cholesterol.

Compound	Body Weight Change	Cholesterol Change
CCN(CC)C/C=C\c1cc(F)ccc1S(=O)(=O)Nc1ccc2c(c1C(=O)O)OCCc1occc1-2	−2.1%	No change
CCN(CC)C/C=C\c1ccccc1S(=O)(=O)Cc1ccc(-c2ccoc2)c(OC)c1C(=O)O	−6.0%	No change
CCN(CC)C/C=C\c1cc(F)ccc1S(=O)(=O)Nc1ccc2c(c1C(=O)O)OC[C@H]1CCCN21	−2.0%	−24%
CCN(CC)C/C=C\c1cc(F)ccc1S(=O)(=O)Nc1ccc2c(ncc3occc32)c1C(=O)O	−16%	No change
CCN(CC)C/C=C\c1cc(F)ccc1S(=O)(=O)Nc1ccc2c(c1C(=O)O)OCc1occc1-2	−7.0%	−35%

From US10064839B2, “Methods of treating liver diseases” (Zafgen, Inc., priority 2012, dated 2018)
